The values below come from PMC10609163, “Exploring the HIV-1 Rev Recognition Element (RRE)–Rev Inhibitory Capacity and Antiretroviral Action of Benfluron Analogs” (Molecules, 2023).

In general, EC50 refers to the concentration that produces a half-maximal response. As a reminder, the IC50 is the concentration at which inhibition is half-maximal. For orientation: Kd means the equilibrium constant for the complex coming apart. By CC50 is commonly meant the concentration giving 50% cytotoxicity.

Each structure is given as a SMILES string. Several values for one entry are separate records, joined by “and”; a condition that tells them apart may be missing. Equal values may be shown once. Read-outs that look alike come from different tables or passages of the source. Some results are limits rather than exact numbers.

Data set [1] has as its system HIV-1NL4-3-Ren. Put plainly: Anti-HIV activity in MT-2 cells infected with HIV-1NL4-3-Ren (Renilla luciferase). It is filed as cell-based. The conditions noted are these: for EC50: Human immunodeficiency virus 1, MT2, 48 h. The procedure: (§1) The methodology used to perform these experiments in MT-2 cell culture was reported previously. Infectious HIV-1NL4-3-Ren supernatants were obtained from transfection in 293T cells with plasmid pNL4-3-Ren, where a Renilla luciferase reporter gene replaces the nef gene of the wild-type pNL4-3 HIV-1 clone, which includes LTR promoters. MT-2 cells were infected with these supernatants (100,000 RLUs/well) in the presence of the compounds, and anti-HIV activity was quantified 48 h post-infection by determining Renilla luciferase activity in cell lysates compared to a non-treated control (100%), following the manufacturer’s instructions (Renilla Assay System, Promega). Briefly, 100 µL of Renilla Assay System buffer was added to obtain cell lysates, and 35 µL of these lysates was then transferred to a white 96-well microplate. RLUs were recorded after injecting 35 µL of Renilla substrate (10 s reading) using a luminometer (Berthold Detection Systems). Cellular viability was evaluated in mock-infected cells similarly treated with the same concentrations of compounds using the CellTiter-Glo assay (Promega). To assess the antiretroviral activity of benfluron in human primary cells, PBMCs were isolated from healthy donors via Ficoll density gradient centrifugation and subsequently cultured in a PHA (1 µg/mL) and IL-2 (100 U/mL)-enriched medium for 48 h at 37 °C. Activated PBMCs were infected with HIV-1NL4-3 [20] at a multiplicity of infection of 0.001 and cultured in the presence of serial dilutions (5 nM–100 µM) of benfluron. Three days post-infection, the supernatant was collected, and the HIV-inhibitory effect of the drug was measured using the Alliance HIV-1 p24 Antigen Elisa Kit (Perkin Elmer). The toxicity of the compound in PBMCs was evaluated as explained above for MT-2 cells. In both experiments, the potential background toxicity and antiviral effect of the DMSO vehicle used to solubilize the molecule were determined in parallel. In all cases, EC50 and CC50 values were calculated with GraphPad Prism using log(inhibitor) vs. response non-linear curve fitting. All cellular assays were performed in triplicate.

The test system of data set [2] is full-length RRE–Rev complex. Put plainly: EMSA of full-length RRE–Rev complex formation inhibition. It is filed as biochemical, HIV-1. The settings on record: low-order RRE–Rev complex EMSA bands; 70 nM RRE, 0.75 µM Rev; 95% CI and R2 in parentheses. Here is the method: These assays were used to monitor full-length RRE–Rev inhibition and involved the viral protein Rev and a 234 nt RRE sequence (Figure 1), obtained as reported previously. RRE was prepared in native conditions using a procedure based on electrophoresis. The reactions used 70 nM RRE and 0.75 μM Rev dissolved in an aqueous solution containing 10 mM HEPES, pH 7.5, 300 mM KCl, 1 mM MgCl2 and 0.5 mM EDTA, and the samples were loaded onto 8% polyacrylamide gels with TB running buffer. Gels were run at 4 °C for 3 h at 150 V, and the bands were stained with SYBR Gold and quantified with ImageJ software. In all cases, we monitored the disappearance of the bands corresponding to low-order RRE–Rev complexes (Figure 4A) using a sigmoidal inhibitory model and GraphPad Prism. At least three independent experiments were conducted for each compound.
(In general: A gel shift assay detects complexes by their altered migration in electrophoresis.)

A further data set deals with RRE subdomain IIB. Kind of data set: Fluorescence binding to fluorescein-labeled (U23) RRE subdomain IIB RNA hairpin. Also on record: species or system HIV-1. The settings on record: RRE IIB hairpin labeled with fluorescein at U23; 100 nM RNA, pH 6.6; 95% CI and R2 in parentheses. Here is the method:
These experiments measured compound association to an RRE subdomain IIB RNA oligonucleotide labeled with fluorescein at extrahelical loop nucleotide U23 (Figure 1) and were carried out in a Spectramax iD5 microplate reader (Molecular Devices) using 100 nM RNA dissolved in 10 mM sodium phosphate, pH 6.6, and 0.1 mM EDTA, as described before. The equilibrium dissociation constants, Kd, were determined by fitting the fluorescence intensity curves to a two-state binding model with GraphPad Prism software. […] All fluorescence experiments were carried out at least three times for each compound.

The next data set can be described thus: in vitro. The data set is classed as cell-based. The conditions noted are these: human. The procedure:
as §1

The subject of data set [3] is HIV-1NL4-3-Ren. Also on record: method as in PMID 30071201. The conditions noted are these: MT-2 cells, HIV-1 infection; cited from earlier work.
Another data set has as its system HIV-1NL4-3. Put plainly: Antiretroviral activity in activated PBMCs infected with HIV-1NL4-3 (p24 ELISA). It is filed as cell-based. Here is the method:
as §1, with “Briefly, 100 µL of Renilla Assay System buffer was added to obtain cell lysates, and 35 µL of these lysates was then transferred to a white 96-well microplate.” left out, “To assess the antiretroviral activity of benfluron in human primary cells, PBMCs were isolated from healthy donors via Ficoll density gradient centrifugation and subsequently cultured in a PHA (1 µg/mL) and IL-2 (100 U/mL)-enriched medium for 48 h at 37 °C. Activated PBMCs were infected with HIV-1NL4-3 [20] at a multiplicity of infection of 0.001 and cultured in the presence of serial dilutions (5 nM–100 µM) of benfluron.” left out, “In all cases, EC50 and CC50 values were calculated with GraphPad Prism using log(inhibitor) vs. response non-linear curve fitting. All cellular assays were performed in triplicate.” left out
In general terms: In an ELISA, binding on a coated surface is turned into a signal by an enzyme label.

The test system of the next data set is PBMCs. Put plainly: in vitro. It is filed as cell-based. The conditions noted are these: human. Here is the method: as §1
The subject of another data set is MT-2 cells. Also on record: method as in PMID 30071201. The conditions noted are these: cited from earlier work.

`CN1CCN(CCOc2cc(C(=O)c3ccccc3)cc3ccccc23)CC1` [Compound 6]: in the data set with HIV-1NL4-3-Ren [1], the EC50 turned out to be 24.2 µM. In addition, the IC50 in data set [2] was ~45 µM and 45 µM. Besides, the dissociation constant Kd at RRE subdomain IIB was 34 µM. Further, the CC50 at 48 h in “in vitro” (CC50) was 20 to 100 µM; in the data set “in vitro” (MT-2 cells, mock-infected, 95% CI and R2 in parentheses, read-out: CC50), 20 to 49.7 µM.

`CN(C)CCOc1ccc(-c2ccccc2)c2ccccc12` [Compound 4]: the EC50 in the data set with HIV-1NL4-3-Ren [1] stood at 17 µM. Also, in data set [2], the IC50 is > 50 µM. The Kd at RRE subdomain IIB came out at 77.5 µM. In “in vitro” (CC50), this compound showed a CC50 at 48 h of 28.7 µM.

Take `CN(C)CCOc1ccc2c(c1)C(=O)c1ccccc1-2` [Compound 1]: in the data set on HIV-1NL4-3-Ren [1], the 50% effective concentration (EC50) was > 100 µM. For the same compound, in data set [2], the IC50 was > 50 µM. The Kd on RRE subdomain IIB came out at 45.6 µM. In addition, the half-maximal cytotoxic concentration (CC50) at 48 h in “in vitro” (CC50) is > 100 µM.

Compound `CN(C)CCOc1cc(C(=O)c2ccccc2)cc2ccccc12` [Compound 5] returned a concentration for a half-maximal effect (EC50) with HIV-1NL4-3-Ren [1] of 19.4 µM. The “selectivity index (SI; CC50/EC50)” value with HIV-1NL4-3-Ren [1] (MT-2 cells) was determined as 2.6. Also, in data set [2], the half-maximal inhibitory concentration (IC50) is ~29 µM and 29 µM. Moreover, on RRE subdomain IIB, the dissociation constant (Kd) came out at 95.1 µM. In addition, the midpoint of cytotoxicity in “in vitro” (CC50), the CC50 at 48 h, lay at 49.7 µM.

In the case of `CN(C)CCOc1cc2c(c3ccccc13)-c1ccccc1C2=O` [benfluron], the EC50 was 0.83 µM in the data set with HIV-1NL4-3-Ren [3] and 5.5 µM with HIV-1NL4-3 (Human immunodeficiency virus 1, PBMC, 72 h, HIV-1NL4-3, three days post-infection, p24, read-out: antiviral EC50). Besides, the IC50 in data set [2] stood at 5 µM. Further, the dissociation constant Kd at RRE subdomain IIB turned out to be 4.83 µM. The “selectivity index (SI; CC50/EC50)” value in the data set with HIV-1NL4-3 was determined as 1.3. The values for the cytotoxic concentration (CC50) in the data set “in vitro” (cytotoxic CC50), in the data set with PBMCs and with MT-2 cells were 7.1 µM, 7.09 µM and 28.1 µM, respectively.

Take `CN(C)CCOc1ccc2c(c1)Cc1ccccc1-2` [Compound 3]: in the data set on HIV-1NL4-3-Ren [1], the EC50 was ~100 µM. In data set [2], the concentration for half-maximal inhibition (IC50) is > 50 µM. Besides, the Kd at RRE subdomain IIB was determined as 106 µM. Also, in “in vitro” (CC50), the CC50 at 48 h was ~100 µM.

Turning to `CN(C)CCOc1cccc(C(=O)c2ccccc2)c1` [Compound 2], the EC50 in the data set with HIV-1NL4-3-Ren [1] was ~100 µM. Further, in data set [2], the concentration for half-maximal inhibition (IC50) was > 50 µM. Further, the Kd on RRE subdomain IIB is > 100 µM. In addition, the 50% cytotoxic concentration (CC50) at 48 h in “in vitro” (CC50) is ~100 µM.
